pIC50: −log10 of the molar value. Like-named read-outs stand apart in the source and are kept apart here.
How the values were obtained:
Format in all cases: biochemical
JAK3 = biological target: T1, JAK3 (Homo sapiens, UniProt P52333); test: Inhibition of a panel of kinases, in vitro HotSpot kinase assay: JAK3; conditions: for pIC50: 1 μM ATP, read-out: IC50 JAK3; for JAK3* IC50 relative to Btk IC50 value: fold relative to Btk IC50 value
T1 sequence (P52333 1-1124): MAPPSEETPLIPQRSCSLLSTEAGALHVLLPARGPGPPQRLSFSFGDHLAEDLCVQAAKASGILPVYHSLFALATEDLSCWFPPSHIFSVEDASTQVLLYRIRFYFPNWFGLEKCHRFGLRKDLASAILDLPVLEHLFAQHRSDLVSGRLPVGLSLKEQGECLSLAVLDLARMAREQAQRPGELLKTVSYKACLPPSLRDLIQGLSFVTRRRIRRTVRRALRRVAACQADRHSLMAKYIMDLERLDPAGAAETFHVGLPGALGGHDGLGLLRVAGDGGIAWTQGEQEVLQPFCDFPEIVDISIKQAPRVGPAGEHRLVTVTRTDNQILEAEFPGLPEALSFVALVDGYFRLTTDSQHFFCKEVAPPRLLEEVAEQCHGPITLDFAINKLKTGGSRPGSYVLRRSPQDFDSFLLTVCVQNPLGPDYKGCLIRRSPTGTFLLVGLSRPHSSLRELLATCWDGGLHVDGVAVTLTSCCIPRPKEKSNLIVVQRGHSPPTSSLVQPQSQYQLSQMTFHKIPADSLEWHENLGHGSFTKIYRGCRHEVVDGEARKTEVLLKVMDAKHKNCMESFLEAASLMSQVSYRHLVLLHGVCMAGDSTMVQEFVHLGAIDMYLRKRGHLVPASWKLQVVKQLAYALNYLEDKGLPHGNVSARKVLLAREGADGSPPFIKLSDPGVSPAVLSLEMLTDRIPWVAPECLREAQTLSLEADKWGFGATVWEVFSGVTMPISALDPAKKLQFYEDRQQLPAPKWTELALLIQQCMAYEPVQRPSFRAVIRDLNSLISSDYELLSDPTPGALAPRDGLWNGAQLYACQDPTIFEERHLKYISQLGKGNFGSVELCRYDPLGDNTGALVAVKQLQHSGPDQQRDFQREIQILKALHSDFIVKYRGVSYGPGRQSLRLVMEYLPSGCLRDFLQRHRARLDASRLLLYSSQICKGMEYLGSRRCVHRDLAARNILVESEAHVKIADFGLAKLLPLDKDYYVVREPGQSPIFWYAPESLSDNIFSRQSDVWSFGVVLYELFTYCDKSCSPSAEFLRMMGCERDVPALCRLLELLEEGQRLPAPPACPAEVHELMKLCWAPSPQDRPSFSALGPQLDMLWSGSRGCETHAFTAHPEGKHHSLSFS

ITK = biological target: T2, ITK (Homo sapiens, UniProt Q08881); test: Inhibition of a panel of kinases, in vitro HotSpot kinase assay: ITK; conditions: for pIC50: 1 μM ATP; for ITK* IC50 relative to Btk IC50 value: fold relative to Btk IC50 value
T2 sequence (Q08881 1-620): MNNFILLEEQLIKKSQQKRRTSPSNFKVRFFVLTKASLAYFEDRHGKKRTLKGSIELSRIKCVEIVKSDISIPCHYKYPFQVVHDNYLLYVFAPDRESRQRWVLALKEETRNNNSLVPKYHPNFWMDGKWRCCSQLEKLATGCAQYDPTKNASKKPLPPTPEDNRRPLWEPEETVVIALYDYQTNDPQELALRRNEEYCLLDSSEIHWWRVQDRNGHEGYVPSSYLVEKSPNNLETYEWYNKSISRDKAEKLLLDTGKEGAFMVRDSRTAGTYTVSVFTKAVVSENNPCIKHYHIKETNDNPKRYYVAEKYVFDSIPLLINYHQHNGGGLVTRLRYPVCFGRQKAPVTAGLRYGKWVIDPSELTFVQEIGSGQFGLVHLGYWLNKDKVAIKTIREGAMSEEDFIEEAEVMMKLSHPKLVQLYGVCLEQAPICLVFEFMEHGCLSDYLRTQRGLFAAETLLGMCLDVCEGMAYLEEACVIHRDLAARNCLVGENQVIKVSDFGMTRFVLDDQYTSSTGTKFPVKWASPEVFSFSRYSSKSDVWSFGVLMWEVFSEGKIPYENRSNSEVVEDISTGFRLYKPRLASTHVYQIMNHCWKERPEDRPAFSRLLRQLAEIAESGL
Experimental: (§1) The degree of inhibition of a panel of kinases is determined using the in vitro HotSpot kinase assay (purified enzymes, ^33P-ATP, an appropriate substrate and 1 μM ATP).

TXK = biological target: T3, TXK (Homo sapiens, UniProt P42681); test: Inhibition of a panel of kinases, in vitro HotSpot kinase assay: TXK; conditions: Table 15, C compounds; 1 μM ATP
T3 sequence (P42681 1-527): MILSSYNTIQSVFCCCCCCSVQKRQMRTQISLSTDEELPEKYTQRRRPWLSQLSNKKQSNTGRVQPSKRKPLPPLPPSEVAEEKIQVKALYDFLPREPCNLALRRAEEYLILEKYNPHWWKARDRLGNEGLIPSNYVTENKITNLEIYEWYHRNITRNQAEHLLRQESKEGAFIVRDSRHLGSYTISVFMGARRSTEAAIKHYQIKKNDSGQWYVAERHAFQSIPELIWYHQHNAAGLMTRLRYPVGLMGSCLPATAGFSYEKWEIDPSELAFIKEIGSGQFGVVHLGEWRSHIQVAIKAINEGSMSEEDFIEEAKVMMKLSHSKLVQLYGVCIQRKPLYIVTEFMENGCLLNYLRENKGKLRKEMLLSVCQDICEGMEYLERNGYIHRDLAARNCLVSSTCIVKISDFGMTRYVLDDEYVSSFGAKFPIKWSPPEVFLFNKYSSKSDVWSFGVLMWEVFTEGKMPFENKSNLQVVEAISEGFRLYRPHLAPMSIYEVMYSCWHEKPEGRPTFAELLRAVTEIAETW
Experimental: as §1

Structure (SMILES)	pIC50 (JAK3; Table 13, A compounds)	pIC50 (ITK; Table 13, A compounds)	JAK3* IC50 relative to Btk IC50 value (JAK3)	ITK* IC50 relative to Btk IC50 value (ITK)	also measured
C[C@@H]1[C@H](NC(=O)N(C)C)CCCN1c1cnc(C(N)=O)c(Nc2ccc(C(=O)N3CCN(C)CC3)cc2)n1 [Example A-98, 5-[(2R,3R)-3-[(dimethylcarbamoyl)amino]-2-methylpiperidin-1-yl]-3-{[4-(4-methylpiperazine-1-carbonyl)phenyl]amino}pyrazine-2-carboxamide]	5.00 to 6.00	5.00 to 6.00	–	–	–
CN1CCN(c2ccc(Nc3nc(N4CCC[C@@H](n5ccc6cc(C7CC7)ccc6c5=O)C4)cnc3C(N)=O)cc2)CC1 [Example A-99, 5-[(3R)-3-(6-cyclo-propyl-1-oxo-1,2-dihydroisoquinolin-2-yl)piperidin-1-yl]-3-{[4-(4-methylpiperazin-1-yl)phenyl]amino}pyrazine-2-carboxamide]	5.00 to 6.00	6.00 to 7.00	–	–	–
C[C@@H]1[C@H](NC(=O)N(C)C)CCCN1c1cnc(C(N)=O)c(Nc2ccc(N3CCN(C)CC3)cc2)n1 [Example A-100, 5-[(2R,3R)-3-[(dimethylcarbamoyl)amino]-2-methylpiperidin-1-yl]-3-{[4-(4-methylpiperazin-1-yl)phenyl]amino}pyrazine-2-carboxamide]	6.00 to 7.00	6.00 to 7.00	–	–	–
Cc1c(Nc2nc(N3CCC[C@@H](NC(=O)c4ccc(C5CC5)cc4)[C@H]3C)cnc2C(N)=O)cnn1C [Example A-191, 5-((2R,3)R-3-(4-cyclopropylbenzamido)-2-methylpiperidin-1-yl)-3-(1,5-dimethyl-1H-pyrazol-4-ylamino)pyrazine-2-carboxamide]	< 5.00	< 5.00	–	–	–
Cc1nn(C)cc1Nc1nc(N2CCC[C@@H](NC(=O)c3ccc(C4CC4)cc3)[C@H]2C)cnc1C(N)=O [Example A-192, 5-((2R,3R)-3-(4-cyclopropylbenzamido)-2-methylpiperidin-1-yl)-3-(1,3-dimethyl-1H-pyrazol-4-ylamino)pyrazine-2-carboxamide]	< 5.00	< 5.00	–	–	–
C[C@@H]1[C@H](NC(=O)c2cc3c(n2C)CC(C)(C)C3)CCCN1c1cnc(C(N)=O)c(Nc2cnn(C)c2)n1 [Example A-193, N-((2R,3R)-1-(5-carbamoyl-6-(1-methyl-1H-pyrazol-4-ylamino)pyrazin-2-yl)-2-methylpiperidin-3-yl)-1,5,5-trimethyl-1,4,5,6-tetrahydrocyclo-penta[b]pyrrole-2-carboxamide]	6.00 to 7.00	6.00 to 7.00	–	–	–
C[C@@H]1[C@H](NC(=O)c2ccc(C3CC3)cc2)CCCN1c1cnc(C(N)=O)c(Nc2cnn(C(F)F)c2)n1 [Example A-198, 5-[(2R,3R)-3-(4-cyclopropylbenzamido)-2-methylpiperidin-1-yl]-3-{[1-(difluoromethyl)-1H-pyrazol-4-yl]amino}pyrazine-2-carboxamide]	–	–	1276x	133x	–
C[C@@H]1[C@H](NC(=O)c2ccc(C(C)(C)O)cc2)CCCN1c1cnc(C(N)=O)c(Nc2cnn(C)c2)n1 [Example A-200, 5-((2R,3R)-3-(4-(2-hydroxypropan-2-yl)benzamido)-2-methyl-piperidin-1-yl)-3-(1-methyl-1H-pyrazol-4-yl-amino)pyrazine-2-carboxamide]	–	–	411x	99x	–
C[C@@H]1[C@H](NC(=O)c2ccc(C3CC3)cc2)CCCN1c1nnc(C(N)=O)c(Nc2cnn(C)c2)n1 [Example A-201, 3-[(2R,3R)-3-(4-cyclopropylbenzamido)-2-methylpiperidin-1-yl]-5-[(1-methyl-1H-pyrazol-4-yl)amino]-1,2,4-triazine-6-carboxamide]	–	–	1102x	234x	–
Cn1cc(Nc2nc(N3CCC[C@@H](NC(=O)c4ccc(C5CC5)cc4)C3)nnc2C(N)=O)cn1 [Example A-202, 3-[(3R)-3-(4-cyclopropylbenzamido)piper-idin-1-yl]-5-[(1-methyl-1H-pyrazol-4-yl)amino]-1,2,4-triazine-6-carboxamide]	–	–	631x	360x	–
C[C@@H]1[C@H](NC(=O)c2ccc(C(C)(C)C)cc2)CCCN1c1cnc(C(N)=O)c(Nc2cnn(C)c2)n1 [Example A-203, 5-((2R,3R)-3-(4-tert-butylbenzamido)-2-methylpiperidin-1-yl)-3-(1-methyl-1H-pyrazol-4-ylamino)pyrazine-2-carboxamide]	–	–	7353x	787x	–
C[C@@H]1[C@H](NC(=O)c2ccc(C3CC3)cc2)CCCN1c1cnc(C(N)=O)c(Nc2cnn(C3CC3)c2)n1 [Example A-205, 3-[(1-cyclopropyl-1H-pyrazol-4-yl)amino]-5-[(2R,3R)-3-(4-cyclopropylbenzamido)-2-methylpiperidin-1-yl]pyrazine-2-carboxamide]	–	–	4032x	135x	–
C[C@@H]1[C@H](NC(=O)c2ccc(C3COC3)cc2)CCCN1c1cnc(C(N)=O)c(Nc2cnn(C)c2)n1 [Example A-206, 3-(1-methyl-1H-pyrazol-4-ylamino)-5-((2R,3R)-2-methyl-3-(4-(oxetan-3-yl)benzamido)piperidin-1-yl)pyrazine-2-carboxamide]	–	–	341x	157x	–
C=CC(=O)N1CCC[C@@H](Nc2nnc(C(N)=O)c(Nc3ccc(C(C)(C)C)cc3)n2)C1 [Example C-40, (R)-3-(1-acryloylpiperidin-3-ylamino)-5-(4-tert-butylphenylamino)-1,2,4-triazine-6-carboxamide]	–	–	–	–	pIC50 (JAK3; Table 15, C compounds): > 8.00; pIC50 (ITK; Table 15, C compounds): ≥ 8.00; pIC50 (TXK): ≥ 8.00
C=CC(=O)N1CC[C@@H](N(C)c2nnc(C(N)=O)c(Nc3ccc(C(C)C)cc3)n2)C1 [Example C-41, (R)-3-((1-acryloylpyrrolidin-3-yl)(methyl)amino)-5-(4-isopropylphenylamino)-1,2,4-triazine-6-carboxamide]	–	–	–	–	pIC50 (JAK3; Table 15, C compounds): > 8.00; pIC50 (ITK; Table 15, C compounds): ≥ 8.00; pIC50 (TXK): ≥ 8.00
C=CC(=O)N1CCC[C@@H](N(C)c2cnc(C(N)=O)c(Nc3ccc(C(C)C)cc3)n2)C1 [Example C-42, (R)-5-((1-acryloylpiperidin-3-yl)(methyl)amino)-3-(4-isopropylphenylamino) pyrazine-2-carboxamide]	–	–	–	–	pIC50 (JAK3; Table 15, C compounds): 7.00 to 8.00; pIC50 (ITK; Table 15, C compounds): 7.00 to 8.00; pIC50 (TXK): ≥ 8.00
